ChEMBL document CHEMBL1201862, “PubChem BioAssay data set” (2004)
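All cell lines were grown in 96-well plates and treated with compound for 48 hours. GI50: concentration for 50% inhibition of growth.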 Active and inactive are the calls of the source. Cut-off read from the data, not from the text of the source: active = GI50 up to about 1.1 µM and inactive = higher.

Tests used:
Assay in all cases: DTP human tumour cell line panel, 48 h
SF-268 = test system: SF-268
HCT-116 = test system: HCT-116
UO-31 = test system: UO-31
CAKI-1 = test system: CAKI-1
Hs-578T = test system: Hs-578T
M14 = test system: M14
MDA-MB-435 = test system: MDA-MB-435
MDA-N = test system: MDA-N
SW-620 = test system: SW-620
SNB-75 = test system: SNB-75
SK-MEL-2 = test system: SK-MEL-2
MDA-MB-231 = test system: MDA-MB-231
OVCAR-8 = test system: OVCAR-8
NCI-H23 = test system: NCI-H23
HCC 2998 = test system: HCC 2998
BT-549 = test system: BT-549
EKVX = test system: EKVX
A549 = test system: A549
OVCAR-3 = test system: OVCAR-3

Structure (SMILES)	GI50 (SF-268)	GI50 (HCT-116)	GI50 (UO-31)	GI50 (CAKI-1)	GI50 (Hs-578T)	GI50 (M14)	GI50 (MDA-MB-435)	GI50 (MDA-N)	GI50 (SW-620)	GI50 (SNB-75)	GI50 (SK-MEL-2)	GI50 (MDA-MB-231)	GI50 (OVCAR-8)	GI50 (NCI-H23)	GI50 (HCC 2998)	GI50 (BT-549)	GI50 (EKVX)	GI50 (A549)	GI50 (OVCAR-3)
c1ccc(/N=C2\c3ccsc3/C(=N/c3ccccc3)c3ccsc32)cc1	2.4 µM (inactive)	1.93 µM (inactive)	2.09 µM (inactive)	4.49 µM (inactive)	2.24 µM (inactive)	1.34 µM (inactive)	0.213 µM (active)	0.244 µM (active)	1.89 µM (inactive)	1.2 µM (inactive)	1.6 µM (inactive)	1.77 µM (inactive)	2.11 µM (inactive)	0.914 µM (active)	3.94 µM (inactive)	2.07 µM (inactive)	2.09 µM (inactive)	2.03 µM (inactive)	1.92 µM (inactive)
CNC(=S)N/N=C/c1ccc([N+](=O)[O-])s1	> 10 µM (inactive)	5.48 µM (inactive)	> 10 µM (inactive)	> 10 µM (inactive)	> 10 µM (inactive)	> 10 µM (inactive)	> 10 µM (inactive)	> 10 µM (inactive)	> 10 µM (inactive)	> 10 µM (inactive)	> 10 µM (inactive)	> 10 µM (inactive)	7.26 µM (inactive)	> 10 µM (inactive)	8.15 µM (inactive)	> 10 µM (inactive)	> 10 µM (inactive)	7.38 µM (inactive)	2.23 µM (inactive)
COc1ccc(-c2cc3ccccc3oc2=O)cc1OC	> 100 µM (inactive)	> 100 µM (inactive)	> 100 µM (inactive)	> 100 µM (inactive)	> 100 µM (inactive)	> 100 µM (inactive)	> 100 µM (inactive)	> 100 µM (inactive)	> 100 µM (inactive)	60.3 µM (inactive)	> 100 µM (inactive)	> 100 µM (inactive)	> 100 µM (inactive)	> 100 µM (inactive)	> 10 µM (inactive)	> 100 µM (inactive)	> 100 µM (inactive)	> 100 µM (inactive)	> 100 µM (inactive)
COc1ccc(/C=C/C=C2C(=O)NC(=S)NC2=O)cc1	4.68 µM (inactive)	4.7 µM (inactive)	7.45 µM (inactive)	9.95 µM (inactive)	6.44 µM (inactive)	10.1 µM (inactive)	2.59 µM (inactive)	4.07 µM (inactive)	1.78 µM (inactive)	17.7 µM (inactive)	16.1 µM (inactive)	2.11 µM (inactive)	4.03 µM (inactive)	9.71 µM (inactive)	8.15 µM (inactive)	2.05 µM (inactive)	8.91 µM (inactive)	20.3 µM (inactive)	6.78 µM (inactive)
O=C1c2ccccc2C(=O)c2c(NC(=O)C(Cl)CCl)cccc21 (stereo unspecified)	5.7 µM (inactive)	10.9 µM (inactive)	10.6 µM (inactive)	16.3 µM (inactive)	31.3 µM (inactive)	6.28 µM (inactive)	7.11 µM (inactive)	10.4 µM (inactive)	2.86 µM (inactive)	10.5 µM (inactive)	5.09 µM (inactive)	6.53 µM (inactive)	5.56 µM (inactive)	4.03 µM (inactive)	13.6 µM (inactive)	17.1 µM (inactive)	19.4 µM (inactive)	20.4 µM (inactive)	11 µM (inactive)
Cn1c2ccccc2c(=NNc2ccc(S(N)(=O)=O)cc2)c2ccccc21	18.1 µM (inactive)	16.7 µM (inactive)	10.7 µM (inactive)	15.7 µM (inactive)	32.7 µM (inactive)	24 µM (inactive)	16.2 µM (inactive)	15.9 µM (inactive)	21.8 µM (inactive)	15.1 µM (inactive)	10.5 µM (inactive)	9.23 µM (inactive)	16.2 µM (inactive)	16 µM (inactive)	14.9 µM (inactive)	8.39 µM (inactive)	12 µM (inactive)	11.7 µM (inactive)	19.5 µM (inactive)
CN(C)c1ccc(/C=N/N=C2\C(=O)Nc3c(Cl)cc(Cl)cc32)cc1	–	39 µM (inactive)	22.9 µM (inactive)	55.8 µM (inactive)	24.7 µM (inactive)	45.9 µM (inactive)	22.5 µM (inactive)	13.5 µM (inactive)	35.6 µM (inactive)	22.8 µM (inactive)	32.1 µM (inactive)	32.5 µM (inactive)	93.1 µM (inactive)	46.3 µM (inactive)	64 µM (inactive)	36.6 µM (inactive)	3.41 µM (inactive)	41.9 µM (inactive)	36.6 µM (inactive)
Nc1[nH]c(Nc2ccc(Cl)c(Cl)c2)nc2ncnc1-2	11 µM (inactive)	15.1 µM (inactive)	8.73 µM (inactive)	10.8 µM (inactive)	5.87 µM (inactive)	16 µM (inactive)	16.6 µM (inactive)	17.5 µM (inactive)	18.1 µM (inactive)	8.36 µM (inactive)	17.5 µM (inactive)	14 µM (inactive)	14.7 µM (inactive)	18.3 µM (inactive)	14.4 µM (inactive)	12.9 µM (inactive)	1.98 µM (inactive)	13.9 µM (inactive)	11.7 µM (inactive)
Cc1cc(/N=C/c2ccc(C#N)cc2)n(-c2ccccc2)n1	48.5 µM (inactive)	49.1 µM (inactive)	> 100 µM (inactive)	> 100 µM (inactive)	44.2 µM (inactive)	55.7 µM (inactive)	37 µM (inactive)	37.7 µM (inactive)	49.4 µM (inactive)	57 µM (inactive)	> 100 µM (inactive)	> 100 µM (inactive)	69 µM (inactive)	56.1 µM (inactive)	> 100 µM (inactive)	93.3 µM (inactive)	94.8 µM (inactive)	64.9 µM (inactive)	38.9 µM (inactive)
Cc1ccsc1/C=N/Nc1cc(C)c2ccccc2n1	17.6 µM (inactive)	12.1 µM (inactive)	10.4 µM (inactive)	16.6 µM (inactive)	16.7 µM (inactive)	8.63 µM (inactive)	14 µM (inactive)	14.5 µM (inactive)	17.2 µM (inactive)	13.8 µM (inactive)	17.9 µM (inactive)	0.637 µM (active)	14.7 µM (inactive)	11.2 µM (inactive)	14 µM (inactive)	21 µM (inactive)	6.82 µM (inactive)	9.55 µM (inactive)	3.94 µM (inactive)
CC(C)(C)OC(=O)NCC(=O)NC1CC=CCC1NC(=O)CNC(=O)OC(C)(C)C (stereo unspecified)	> 100 µM (inactive)	> 100 µM (inactive)	> 100 µM (inactive)	> 100 µM (inactive)	> 100 µM (inactive)	–	> 100 µM (inactive)	> 100 µM (inactive)	> 100 µM (inactive)	> 100 µM (inactive)	–	> 100 µM (inactive)	> 100 µM (inactive)	> 100 µM (inactive)	> 100 µM (inactive)	> 100 µM (inactive)	–	> 100 µM (inactive)	> 100 µM (inactive)
COc1cc(O)c2c(=O)c3cccc(C)c3[nH]c2c1	> 10 µM (inactive)	> 10 µM (inactive)	–	> 10 µM (inactive)	> 10 µM (inactive)	> 10 µM (inactive)	> 10 µM (inactive)	> 10 µM (inactive)	> 10 µM (inactive)	6.62 µM (inactive)	> 10 µM (inactive)	> 10 µM (inactive)	> 10 µM (inactive)	> 10 µM (inactive)	> 10 µM (inactive)	> 10 µM (inactive)	> 10 µM (inactive)	> 10 µM (inactive)	9.31 µM (inactive)
c1cc(C[S+]2CCCC2)sc1C[S+]1CCCC1	> 100 µM (inactive)	> 100 µM (inactive)	> 100 µM (inactive)	> 100 µM (inactive)	> 100 µM (inactive)	> 100 µM (inactive)	> 100 µM (inactive)	> 100 µM (inactive)	> 100 µM (inactive)	> 100 µM (inactive)	–	> 100 µM (inactive)	> 100 µM (inactive)	> 100 µM (inactive)	> 100 µM (inactive)	> 100 µM (inactive)	> 100 µM (inactive)	> 100 µM (inactive)	> 100 µM (inactive)
Cc1cccc2c(=O)c3c(O)cc4c(c3n(C)c12)C=CC(C)(C)O4	> 100 µM (inactive)	58.9 µM (inactive)	–	> 100 µM (inactive)	39.4 µM (inactive)	28.3 µM (inactive)	70.5 µM (inactive)	35.6 µM (inactive)	> 100 µM (inactive)	97.5 µM (inactive)	> 100 µM (inactive)	> 100 µM (inactive)	> 100 µM (inactive)	33 µM (inactive)	> 100 µM (inactive)	23.1 µM (inactive)	25.6 µM (inactive)	77.6 µM (inactive)	> 100 µM (inactive)
Cc1cn([C@H]2C[C@](C)(CO)N(C)O2)c(=O)[nH]c1=O	> 100 µM (inactive)	> 100 µM (inactive)	> 100 µM (inactive)	> 100 µM (inactive)	> 100 µM (inactive)	> 100 µM (inactive)	> 100 µM (inactive)	> 100 µM (inactive)	> 100 µM (inactive)	> 100 µM (inactive)	> 100 µM (inactive)	> 100 µM (inactive)	–	> 100 µM (inactive)	> 100 µM (inactive)	> 100 µM (inactive)	> 100 µM (inactive)	> 100 µM (inactive)	–
